The results in this text go back to patent US9315458B2, “Nitrogen-containing heterocyclic compound” (Takeda Pharmaceutical Company Limited, priority 2014, dated 2016).

The target in the test is T1, human M1 receptor (hCHRM1) (Homo sapiens, UniProt P11229).
T1 construct: expressed in transfected cells
T1 sequence (P11229 1-460): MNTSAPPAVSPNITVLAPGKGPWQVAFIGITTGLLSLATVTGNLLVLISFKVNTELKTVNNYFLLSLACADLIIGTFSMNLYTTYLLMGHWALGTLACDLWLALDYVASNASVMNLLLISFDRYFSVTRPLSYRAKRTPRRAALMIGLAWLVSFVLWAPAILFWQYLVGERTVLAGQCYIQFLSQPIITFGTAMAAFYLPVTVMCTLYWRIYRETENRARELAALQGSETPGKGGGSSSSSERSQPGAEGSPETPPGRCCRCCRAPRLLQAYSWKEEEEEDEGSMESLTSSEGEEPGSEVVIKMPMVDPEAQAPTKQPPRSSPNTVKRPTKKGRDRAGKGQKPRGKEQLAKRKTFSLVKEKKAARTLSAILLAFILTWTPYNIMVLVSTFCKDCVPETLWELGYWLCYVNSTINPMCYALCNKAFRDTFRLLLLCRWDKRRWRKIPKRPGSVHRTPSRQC
Briefly: Measurement of M1 receptor positive allosteric modulator (M1PAM) activity, calcium fluorescence (FLIPRtetra) with acetylcholine at EC20. It counts as cell-based. To be noted: for activity (%) at 10 μM: 10 μM test compound, 100% = acetylcholine 1 μM, 0% = DMSO, acetylcholine at EC20; for EC50: inflection point of concentration-dependent curve, CHO-K1 cells expressing hCHRM1, acetylcholine at EC20 (final 0.6-0.8 nM), read-out: IP value. The procedure: The activity of a test compound in the presence of acetylcholine at EC20 concentration (final concentration 0.6-0.8 nM), which affords an action corresponding to about 20% of the maximum activity, was measured as PAM activity. The method is as follows. CHO-K1 cells stably expressing a human M1 receptor (hCHRM1) were plated on a 384-well black clear bottom plate (BD Falcon) at 5,000 cells/well, and cultured in an incubator at 37° C., 5% CO2 for 1 day. The medium in the cell plate was removed, and assay buffer A (Recording medium (DOJINDO LABORATORIES), 0.1% BSA (Wako Pure Chemical Industries, Ltd.), 2.5 μg/mL Fluo-4 AM (DOJINDO LABORATORIES), 0.08% Pluronic F127 (DOJINDO LABORATORIES), 1.25 mM probenecid (DOJINDO LABORATORIES)) containing a calcium indicator was added at 30 μL/well. The cells were left standing in the incubator at 37° C., 5% CO2 for 30 min, and further left standing at room temperature for 30 min. A test compound prepared by diluting with assay buffer B (HBSS (Invitrogen), 20 mM HEPES (Invitrogen), 0.1% BSA) containing 2.4-3.2 nM acetylcholine was added at 10 μL/well, and the fluorescence was measured by FLIPRtetra (Molecular Devices) for 1 min every 1 second. With the definition that the amount of change in the fluorescence on addition of acetylcholine (final concentration 1 μM) is 100% and that on addition of DMSO instead of a test compound is 0%, the activity (%) of the test compound was calculated, and the inflection point in the concentration-dependent curve of the test compound was calculated as IP values.

For `COc1ccc(Cc2cc3c(c(C)c2C)CN([C@H]2COCC[C@@H]2O)C3=O)c(F)c1` [Example 163, 6-(2-fluoro-4-methoxybenzyl)-2-[(3S,4S)-4-hydroxytetrahydro-2H-pyran-3-yl]-4,5-dimethyl-2,3-dihydro-1H-isoindol-1-one], the “activity (%) at 10 μM” value is reported as 108% and the EC50 was 51 nM.

With `Cc1cc2c(cc1Cc1ccc(-n3cccn3)cc1)C(=O)N(c1c(F)cccc1C#N)C2` [Example 7, 3-fluoro-2-(5-methyl-1-oxo-6-(4-(1H-pyrazol-1-yl)benzyl)-1,3-dihydro-2H-isoindol-2-yl)benzonitrile], the “activity (%) at 10 μM” value is given as 107% and the EC50 is 180 nM.

For `Cn1cc(-c2ccc(Cc3cc4c(cc3Cl)CN([C@H]3CCCC[C@@H]3O)C4=O)cc2)cn1` (racemic) [Example 75, rac-5-chloro-2-(trans-2-hydroxycyclohexyl)-6-(4-(1-methyl-1H-pyrazol-4-yl)benzyl)isoindolin-1-one], the “activity (%) at 10 μM” value is on record as 97% and the EC50 worked out at 23 nM.

With `CCc1cc2c(cc1Cc1ccc(-c3cn(C)nn3)cc1)C(=O)N([C@H]1CCC[C@@H]1O)C2` [Example 119, 5-ethyl-2-((1S,2S)-2-hydroxycyclopentyl)-6-(4-(1-methyl-1H-1,2,3-triazol-4-yl)benzyl)isoindolin-1-one], the “activity (%) at 10 μM” value is reported as 91% and the EC50 turned out to be 3.1 nM.

Turning to `Cc1c(Cc2ccc(C#N)cc2F)cc2c(c1C)CN([C@H]1COCC[C@@H]1O)C2=O` (racemic) [Example 112, rac-3-fluoro-4-((2-(trans-4-hydroxytetrahydro-2H-pyran-3-yl)-6,7-dimethyl-3-oxo-2,3-dihydro-1H-isoindol-5-yl)methyl)benzonitrile], the “activity (%) at 10 μM” value came to 93% and the EC50 was 30 nM.

Take `Cc1c(Cc2ccc(C#N)cc2F)cc2c(c1C)CN([C@H]1COCC[C@@H]1O)C2=O` [Example 124, 3-fluoro-4-({2-[(3S,4S)-4-hydroxytetrahydro-2H-pyran-3-yl]-6,7-dimethyl-3-oxo-2,3-dihydro-1H-isoindol-5-yl}methyl)benzonitrile]: the “activity (%) at 10 μM” value is given as 86% and the EC50 was 16 nM.

For `Cc1c(Cc2ccc(-n3cccn3)nc2)cc2c(c1C)CN(C[C@@H]1CCCO1)C2=O` [Example 136, 4,5-dimethyl-6-((6-(1H-pyrazol-1-yl)pyridin-3-yl)methyl)-2-((2S)-tetrahydrofuran-2-ylmethyl)isoindolin-1-one], the “activity (%) at 10 μM” value was 100% and the EC50 worked out at 75 nM.

Turning to `Cc1c(Cc2ccc(-c3cn(C)nn3)cc2F)cc2c(c1C)CN(CC1CCCO1)C2=O` (stereo not shown) [Example 103, 6-(2-fluoro-4-(1-methyl-1H-1,2,3-triazol-4-yl)benzyl)-4,5-dimethyl-2-(tetrahydrofuran-2-ylmethyl)isoindolin-1-one], the “activity (%) at 10 μM” value was determined as 94% and the EC50 came to 6 nM.

For the compound `Cn1cc(-c2ccc(Cc3ccc4c(c3)C(=O)N([C@H]3CCCC[C@@H]3O)C4)cn2)cn1` (racemic) [Example 1, rac-2-(trans-2-hydroxycyclohexyl)-6-((6-(1-methyl-1H-pyrazol-4-yl)pyridin-3-yl)methyl)isoindolin-1-one], the “activity (%) at 10 μM” value worked out at 111% and the EC50 came to 750 nM.

Consider `CCc1cc2c(cc1Cc1ccc(-n3cccn3)cc1)C(=O)N(CC(C)(C)O)C2` [Example 129, 5-ethyl-2-(2-hydroxy-2-methylpropyl)-6-(4-(1H-pyrazol-1-yl)benzyl)isoindolin-1-one], for which the “activity (%) at 10 μM” value was 100% and the EC50 amounted to 53 nM.

With `Cc1cc2c(cc1Cc1ccc(-c3ccn(C)n3)nc1)C(=O)N([C@H]1CCC[C@@H]1O)C2` (racemic) [Example 43, rac-2-(trans-2-hydroxycyclopentyl)-5-methyl-6-((6-(1-methyl-1H-pyrazol-3-yl)pyridin-3-yl)methyl)isoindolin-1-one], the “activity (%) at 10 μM” value came out at 110% and the EC50 was found to be 98 nM.

On to `Cc1cc2c(cc1Cc1ccc(-n3cccn3)cc1)C(=O)N(CC1CCCO1)C2` (stereo not shown) [Example 36, 5-methyl-6-(4-(1H-pyrazol-1-yl)benzyl)-2-(tetrahydrofuran-2-ylmethyl)isoindolin-1-one], for which the “activity (%) at 10 μM” value worked out at 107% and the EC50 amounted to 83 nM.

Turning to `Cc1c(Cc2ccc(Cl)cc2)cc2c(c1C)CN([C@H]1COCC[C@@H]1O)C2=O` [Example 17, 1,5-anhydro-2-(6-(4-chlorobenzyl)-4,5-dimethyl-1-oxo-1,3-dihydro-2H-isoindol-2-yl)-2,4-dideoxy-L-threo-pentitol], the “activity (%) at 10 μM” value amounted to 90% and the EC50 was determined as 18 nM.

For `Cc1cc(-c2ccc(Cc3cc4c(cc3C)CN([C@H]3CCC[C@@H]3O)C4=O)cc2)ccn1` (racemic) [Example 100, rac-2-(trans-2-hydroxycyclopentyl)-5-methyl-6-(4-(2-methylpyridin-4-yl)benzyl)isoindolin-1-one], the “activity (%) at 10 μM” value is reported as 101% and the EC50 was 94 nM.

For the compound `Cc1c(Cc2ccc(-n3cccn3)cc2)cc2c(c1C)CN(CC(C)(C)O)C2=O` [Example 15, 2-(2-hydroxy-2-methylpropyl)-4,5-dimethyl-6-(4-(1H-pyrazol-1-yl)benzyl)isoindolin-1-one], the “activity (%) at 10 μM” value is on record as 103% and the EC50 is 11 nM.

On to `Cc1cc2c(cc1Cc1ccc(-n3cccn3)cc1)C(=O)N([C@H]1CCCC[C@@H]1O)C2` (racemic) [Example 32, rac-2-(trans-2-hydroxycyclohexyl)-5-methyl-6-(4-(1H-pyrazol-1-yl)benzyl)isoindolin-1-one], for which the “activity (%) at 10 μM” value turned out to be 99% and the EC50 is 5.6 nM.

In the case of `CCc1cc2c(cc1Cc1ccc(-c3cn(C)nn3)cc1)C(=O)N(CC1CCCO1)C2` (stereo not shown) [Example 105, 5-ethyl-6-(4-(1-methyl-1H-1,2,3-triazol-4-yl)benzyl)-2-(tetrahydrofuran-2-ylmethyl)isoindolin-1-one], the “activity (%) at 10 μM” value came out at 92% and the EC50 came out at 10 nM.

With `Cc1c(Cc2ccc(-c3ccn(C)n3)cc2)cc2c(c1C)CN(CC(C)(C)O)C2=O` [Example 114, 2-(2-hydroxy-2-methylpropyl)-4,5-dimethyl-6-(4-(1-methyl-1H-pyrazol-3-yl)benzyl)isoindolin-1-one], the “activity (%) at 10 μM” value was found to be 96% and the EC50 worked out at 15 nM.

For the compound `Cc1cc2c(cc1Cc1ccc(-n3cccn3)cc1)C(=O)N(C1CCOCC1)C2` [Example 8, 5-methyl-6-(4-(1H-pyrazol-1-yl)benzyl)-2-(tetrahydro-2H-pyran-4-yl)isoindolin-1-one], the “activity (%) at 10 μM” value worked out at 90% and the EC50 came to 290 nM.

Turning to `COc1ccc(Cc2cc3c(c(C)c2C)CN([C@H]2COCC[C@@H]2O)C3=O)cc1` (racemic) [Example 165, rac-2-(trans-4-hydroxytetrahydro-2H-pyran-3-yl)-6-(4-methoxybenzyl)-4,5-dimethyl-2,3-dihydro-1H-isoindol-1-one], the “activity (%) at 10 μM” value was determined as 103% and the EC50 worked out at 36 nM.

Take `Cc1c(C#N)c(Cc2ccc(-n3cccn3)cc2)cc2c1CN([C@H]1CCCC[C@@H]1O)C2=O` (racemic) [Example 11, rac-2-(trans-2-hydroxycyclohexyl)-4-methyl-1-oxo-6-(4-(1H-pyrazol-1-yl)benzyl)isoindoline-5-carbonitrile]: the “activity (%) at 10 μM” value came out at 105% and the EC50 turned out to be 13 nM.

Regarding `Cc1cc2c(cc1Cc1ccc(-c3cn(C)nn3)cc1F)C(=O)N(CC1CCCO1)C2` (stereo not shown) [Example 54, 6-(2-fluoro-4-(1-methyl-1H-1,2,3-triazol-4-yl)benzyl)-5-methyl-2-(tetrahydrofuran-2-ylmethyl)isoindolin-1-one], the “activity (%) at 10 μM” value is recorded as 92% and the EC50 is 37 nM.

Turning to `Cc1c(Cc2ccc(-c3ccn(C)n3)cc2)cc2c(c1C)CN(CC1CCCO1)C2=O` (stereo not shown) [Example 85, 4,5-dimethyl-6-(4-(1-methyl-1H-pyrazol-3-yl)benzyl)-2-(tetrahydrofuran-2-ylmethyl)isoindolin-1-one], the “activity (%) at 10 μM” value was 105% and the EC50 was 41 nM.
